Columns and labels:
[1] = tested on: T-Rex 293 cell line SC cells lacking increased expression of BCL6 protein; assay: Cellular growth inhibition assay, T-Rex 293 SC cells without doxycycline (CellTiter-Glo); format: cell-based; conditions: T-Rex 293 SC cells not exposed to doxycycline (no increased BCL6 expression), 72 hours, CellTiter-Glo 2.0
Protocol: (§1) Exemplary compounds were tested for ability to inhibit the proliferation of the following types of cells: (i) a T-Rex 293 cell line having increased expression of BCL6 protein due to exposure of doxycycline and (ii) a T-Rex 293 cell line lacking increased expression of BCL6 protein.
(§2) The following types of cells were prepared for this experiment: (i) a T-Rex 293 cell line having increased expression of BCL6 protein due to exposure to doxycycline and (ii) a T-Rex 293 cell line lacking increased expression of BCL6 protein. Ability of the test compounds to inhibit proliferation of the foregoing cell types was evaluated according to the procedures set forth below.
(§3) The doxycycline-inducible BCL6 protein expressing cell line was established using the following protocol: T-Rex 293 cells were purchased from Invitrogen (Cat #R71007) and transfected using Lipofectamine 2000 with the wild-type BCL6 protein sequence cloned into the pcDNA4/TO vector. Transfected cells were selected using 400 μg/mL Zeocin (Invitrogen Cat #R25001). Following selection, single clones were raised and maintained in Dulbecco's Modified Eagle Medium (DMEM) supplemented with 10% w/w Tetracycline-free fetal bovine serum (FBS) and 250 μg/mL Zeocin. Clones were analyzed for expression of BCL6 protein in the presence and absence of 10 ng/mL doxycycline (Sigma Cat #D9891), and a single doxycycline-inducible clone (hereinafter “SC”) was selected for use in downstream assays.
(§4) The SC cells were seeded on poly-D-lysine coated, black clear-bottom 384-well plates at 2500/well, in 25 μL Dulbecco's Modified Eagle Medium (DMEM) supplemented with 10% w/w Tetracycline-free fetal bovine serum (FBS) and 1% w/w pen-strep, with or without 10 ng/mL doxycycline. Pen-Strep is a commercially available mixture of penicillin G and streptomycin, which is used in mammalian cell culture media to prevent bacterial contamination. Dulbecco's Modified Eagle Medium (DMEM) supplemented with 10% w/w Tetracycline-free fetal bovine serum (FBS) and 1% w/w pen-strep, with or without 10 ng/mL doxycycline is herein referred to as Treatment Medium. Following seeding of cells in the plates, the plates were spun at 300×g for 30 seconds, then equilibrated to room temperature for 30 minutes, and then deposited in a humidified tissue culture incubator maintained at 37° C. with 5% CO2.
(§5) At 24 hours after seeding of the cells, dilutions of test compound were prepared in DMSO and dissolved in Treatment Medium, to achieve a final DMSO concentration of 0.5% w/w, thereby providing the Test Compound Solution. A 25 μL aliquot of the Test Compound Solution was added to cells in the well plates. An equal volume of a solution containing DMSO and Treatment Medium was used as a negative control. Following treatment of cells with Test Compound Solution or said equal volume of a solution containing DMSO and Treatment Medium, the plates were spun at 300×g for 30 seconds, and then left in an incubator for 72 hours.
(§6) At the end of the treatment duration, cell viability was quantified with CellTiter-Glo 2.0 reagent (Promega Cat #G9243). For this purpose, plates were equilibrated to room temperature for 30 minutes, and then 25 μL of CellTiter-Glo 2.0 reagent was added to cells in the plate wells. Plates were then agitated on a shaker for two minutes at 500 rpm and subsequently incubated at room temperature for 10 minutes. Following incubation, the plates were spun at 3000×g for 30 seconds, then sealed with an optical adhesive cover, and luminescence readings were measured with an EnVision Plate Reader (Perkin Elmer).
(§7) Data was normalized using zero luminescence for baseline. A four-parameter non-linear regression curve fit was applied to dose-response data in GraphPad Prism data analysis software to determine the half-maximal growth inhibitory concentration (GI50) for each test compound.

[2] = biological target: T1, His-tagged BRD4 BD2 (333-460) (Homo sapiens, UniProt O60885); assay: AlphaLISA competition assay, BRD4 BD2; format: binding; conditions: BRD4-BD2, AlphaLISA competition with biotinylated histone H4K5/8/12/16(Ac) peptide, 20 nM
T1 construct: The same assay was developed for His-tagged BRD4 BD2 (333-460) and biotinylated histone H4K5/8/12/16(Ac) peptide
Protocol: (§8) Exemplary compounds were tested for ability to bind to bromodomain-containing protein 4 (BRD4).
(§9) Compounds were tested using a developed AlphaLISA competition assay. Briefly, His-tagged BRD4 BD1 (46-168) and biotinylated histone H4K5/8/12/16(Ac) peptide (ANASPEC, AS-64989-1) were incubated in 20 mM HEPES pH 7.5, 100 mM NaCl, 0.5 mM TCEP, 0.1% BSA, 0.02% CHAPS at a final concentration of 10 nM. Test compounds were serially diluted ten times in the same buffer and were added to the BRD4-peptide mixture for 1 h incubation at room temperature. Following incubation, Streptavidin AlphaLISA acceptor beads (PerkinElmer, AL125M) were added to BRD4-peptide-compound samples to a final concentration of 0.01 mg/mL for a 0.5 h incubation at room temperature in the dark. Following incubation, the same amount of Nickel Chelate Alpha donor beads (PerkinElmer, AS101M) were added to the samples for a final 1 h incubation. The AlphaLISA signals were measured using an EnVision plate reader (PerkinElmer). The data were uploaded to Screening Ultra (Dotmatics) to determine the half-maximal inhibitory concentration (IC50) for each test compound.
The same assay was developed for His-tagged BRD4 BD2 (333-460) and biotinylated histone H4K5/8/12/16(Ac) peptide at a final concentration of 20 nM.

Farage cell line = assay: Cellular growth inhibition assay, Farage cells (CellTiter-Glo); format: cell-based; conditions: Farage cell line (DLBCL), 72 hours, CellTiter-Glo 2.0
Protocol: (§10) Exemplary compounds were tested for ability to inhibit the proliferation of Su-DHL-4 and Farage cells. Su-DHL-4 and Farage cells are commercially available diffuse large B cell lymphoma cell lines (DLBCL).
(§11) Su-DHL-4 and Farage cells were purchased from American Type Cell Culture (ATCC Cat #CRL-2957/CRL-2630) and then seeded on poly-D-lysine coated, black clear-bottom 384-well plates at 3000/well in 25 μL Roswell Park Memorial Institute media (RPMI-1640) supplemented with 10% w/w Fetal bovine serum (FBS) and 1% w/w Pen-Strep. Pen-Strep is a commercially available mixture of penicillin G and streptomycin, which is used in mammalian cell culture media to prevent bacterial contamination. Roswell Park Memorial Institute media (RPMI-1640) supplemented with 10% w/w fetal bovine serum (FBS), and 1% w/w Pen-Strep is herein referred to as Treatment Medium. Following seeding of cells in the plates, the plates were spun at 300×g for 30 seconds, then equilibrated to room temperature for 30 minutes, and then deposited in a humidified tissue culture incubator maintained at 37° C. with 5% CO2.
as §5, §6, §7

[3] = biological target: T2, biotinylated BCL6 (5-129) (Homo sapiens, UniProt P41182); assay: SPR assay for binding affinity to BCL6; conditions: Biacore 8K, 25° C., immobilized biotinylated BCL6 (5-129)
T2 construct: biotinylated BCL6 (5-129) was diluted in 10 mM HEPES pH 7.4; biotin (biotinylated)
Protocol: Exemplary compounds were tested for ability to bind to B-cell lymphoma 6 (BCL6) protein.
Binding studies by surface plasmon resonance (SPR) were performed using a Biacore 8K (Cytiva) instrument at 25° C. Briefly, biotinylated BCL6 (5-129) was diluted in 10 mM HEPES pH 7.4, 150 mM NaCl, 0.05% Surfactant P20, 0.5 mM TCEP, 3% DMSO to 1-5 μg/mL and was immobilized on an SA sensor chip (Cytiva, BR100032), resulting in surface densities at 1000-3000 resonance units (RUs). Test compounds were serially diluted five times in the same buffer and were injected to the immobilized surface. Kinetic determination experiments were performed using single-cycle kinetics with 110-120 s contact time, 1000-4000 s dissociation time, 30 μL/min flow rate. Binding data were analyzed by using Biacore insight evaluation software to determine KD values for test compounds.

[4] = tested on: T-Rex 293 cell line SC cells having increased expression of BCL6 protein; assay: Cellular growth inhibition assay, T-Rex 293 SC cells with doxycycline (CellTiter-Glo); format: cell-based; conditions: T-Rex 293 SC cells with 10 ng/mL doxycycline (increased BCL6 expression), 72 hours, CellTiter-Glo 2.0
Protocol: as §1, §2, §3, §4, §5, §6, §7

[5] = biological target: T3, His-tagged BRD4 BD1 (46-168) (Homo sapiens, UniProt O60885); assay: AlphaLISA competition assay, BRD4 BD1; format: binding; conditions: BRD4-BD1, AlphaLISA competition with biotinylated histone H4K5/8/12/16(Ac) peptide, 10 nM
T3 construct: His-tagged BRD4 BD1 (46-168) and biotinylated histone H4K5/8/12/16(Ac) peptide
Protocol: as §8, §9

Su-DHL-4 cell line = assay: Cellular growth inhibition assay, Su-DHL-4 cells (CellTiter-Glo); format: cell-based; conditions: Homo sapiens; Su-DHL-4 cell line (DLBCL), 72 hours, CellTiter-Glo 2.0
Protocol: as §10, §11, §5, §6, §7

Row | IC50 [2] | Kd [3] | IC50 [5] | GI50 (Su-DHL-4 cell line) | Structure (SMILES) | GI50 [1] | GI50 (Farage cell line) | GI50 [4]
1 | < 5 nM | 1 to 10 nM | < 5 nM | – | CNC(=O)COc1cc2cc(Nc3nc(N4CCC(CN5CCN(CC[C@H]6C[C@@H](Oc7ccc(C(C)(C)O)cc7-c7cn(C)c(=O)c8[nH]ccc78)C6)CC5)CC4)ncc3Cl)ccc2n(C)c1=O [Compound I-46] | < 500 nM | < 500 nM | < 500 nM
2 | – | – | – | < 500 nM | CCS(=O)(=O)Nc1ccc(Oc2cccc(OCCOCCOC3CCN(c4ncc(Cl)c(Nc5ccc6c(c5)cc(OCC(=O)NC)c(=O)n6C)n4)CC3)c2)c(-c2cn(C)c(=O)c3[nH]ccc23)c1 [Compound I-1, 2-[[6-[[5-chloro-2-[4-[2-[2-[3-[4-(ethylsulfonylamino)-2-(6-methyl-7-oxo-1H-pyrrolo[2,3-c]pyridin-4-yl)phenoxy]phenoxy]ethoxy]ethoxy]-1-piperidyl]pyrimidin-4-yl]amino]-1-methyl-2-oxo-3-quinolyl]oxy]-N-methyl-acetamide] | – | – | –
3 | < 5 nM | 1 to 10 nM | < 5 nM | – | CNC(=O)COc1cc2cc(Nc3nc(N4CCC(CN5CCCC6(C5)CN(C[C@H]5C[C@@H](Oc7ccc(C(C)(C)O)cc7-c7cn(C)c(=O)c8[nH]ccc78)C5)C6)CC4)ncc3Cl)ccc2n(C)c1=O [Compound I-44] | 500 to 1500 nM | < 500 nM | < 500 nM
4 | < 5 nM | > 100 nM | < 5 nM | – | CNC(=O)COc1cc2cc(Nc3nc(N4CCC(CN5CCN(Cc6ccc(Oc7ccc(C(C)(C)O)cc7-c7cn(C)c(=O)c8[nH]ccc78)cc6)CC5)CC4)ncc3Cl)ccc2n(C)c1=O [Compound I-38] | < 500 nM | < 500 nM | < 500 nM
5 | < 5 nM | 1 to 10 nM | < 5 nM | – | CNC(=O)COc1cc2cc(Nc3nc(N4CCN(CCN5CCN(Cc6cccc(Oc7ccc(C(C)(C)O)cc7-c7cn(C)c(=O)c8[nH]ccc78)c6)CC5)CC4)ncc3Cl)ccc2n(C)c1=O [Compound I-47] | < 500 nM | < 500 nM | < 500 nM

The remaining lines, values behind:

Row | Structure (SMILES) | IC50 [2] | Kd [3] | IC50 [5] | GI50 (Su-DHL-4 cell line) | GI50 [1] | GI50 (Farage cell line) | GI50 [4]
6 | CNC(=O)COc1cc2cc(Nc3nc(N4CCCC5(CN(C[C@H]6C[C@@H](Oc7ccc(C(C)(C)O)cc7-c7cn(C)c(=O)c8[nH]ccc78)C6)C5)C4)ncc3Cl)ccc2n(C)c1=O [Compound I-42] | > 500 nM | < 1 nM | < 5 nM | – | > 3000 nM | 1500 to 3000 nM | < 500 nM
7 | CCS(=O)(=O)Nc1ccc(Oc2cccc(OCCN3CCN(CC4CCN(c5ncc(Cl)c(Nc6ccc7c(c6)cc(OCC(=O)NC)c(=O)n7C)n5)CC4)CC3)c2)c(-c2cn(C)c(=O)c3[nH]ccc23)c1 [Compound I-4] | 5 to 50 nM | > 100 nM | 50 to 500 nM | < 500 nM | < 500 nM | – | < 500 nM
8 | CNC(=O)COc1cc2cc(Nc3nc(N4CCC(N5CCN(Cc6cccc(Oc7ccc(C(C)(C)O)cc7-c7cn(C)c(=O)c8[nH]ccc78)c6)CC5)CC4)ncc3Cl)ccc2n(C)c1=O [Compound I-40] | < 5 nM | 10 to 100 nM | < 5 nM | – | < 500 nM | < 500 nM | < 500 nM
9 | CNC(=O)COc1cc2cc(Nc3nc(N4CCCC5(CN(C[C@H]6C[C@H](Oc7ccc(C(C)(C)O)cc7-c7cn(C)c(=O)c8[nH]ccc78)C6)C5)C4)ncc3Cl)ccc2n(C)c1=O [Compound I-41] | > 500 nM | 1 to 10 nM | < 5 nM | – | > 3000 nM | 1500 to 3000 nM | < 500 nM
10 | CNC(=O)COc1cc2cc(Nc3nc(N4CCC(N5CCN(Cc6ccc(Oc7ccc(C(C)(C)O)cc7-c7cn(C)c(=O)c8[nH]ccc78)cc6)CC5)CC4)ncc3Cl)ccc2n(C)c1=O [Compound I-48] | < 5 nM | 10 to 100 nM | < 5 nM | – | < 500 nM | < 500 nM | < 500 nM
11 | CNC(=O)COc1cc2cc(Nc3nc(N4CCC(CN5CCN(Cc6cccc(Oc7ccc(C(C)(C)O)cc7-c7cn(C)c(=O)c8[nH]ccc78)c6)CC5)CC4)ncc3Cl)ccc2n(C)c1=O [Compound I-39] | < 5 nM | 10 to 100 nM | 5 to 50 nM | – | < 500 nM | < 500 nM | < 500 nM
